One assay concerns the target PI3Kdelta (Homo sapiens (Human), UniProt O00329). Kind of assay: HTRF PI3K biochemical assay, delta isoform. Conditions: 0.3 nM enzyme, 100 uM ATP, 5 uM PIP2, form screened per table. The gist of the method: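 PI3Kδ at 0.3 nM preincubated 15 min with compound, then reacted 1 h at room temperature with 100 uM ATP and 5 uM PIP2. PIP3 product detected by competitive HTRF displacing biotin-PIP3 from GST-GRP1 PH domain, so signal falls with activity. 10-point 3-fold dose response.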
(Time-resolved FRET reads energy transfer from a long-lived donor to a nearby acceptor.)

The target in the next assay is PI3Kalpha (Homo sapiens (Human), UniProt P42336). Kind of assay: HTRF PI3K biochemical assay, alpha isoform (selectivity versus delta). The following applies: relative ratio PI3K-alpha IC50 value / PI3K-delta IC50 value. The procedure, abridged:
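Recombinant human PI3Kα (0.5 nM) preincubated 15 min with compound, then reacted 1 h at room temperature with 100 uM ATP and 5 uM PIP2. PIP3 formation detected by HTRF competition with biotin-PIP3 for GST-GRP1 PH domain (Eu/APC, 665/620 nm); product lowers signal.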

PI3Kdelta, sequence (O00329 whole entry, the tested form may be a part, canonical isoform): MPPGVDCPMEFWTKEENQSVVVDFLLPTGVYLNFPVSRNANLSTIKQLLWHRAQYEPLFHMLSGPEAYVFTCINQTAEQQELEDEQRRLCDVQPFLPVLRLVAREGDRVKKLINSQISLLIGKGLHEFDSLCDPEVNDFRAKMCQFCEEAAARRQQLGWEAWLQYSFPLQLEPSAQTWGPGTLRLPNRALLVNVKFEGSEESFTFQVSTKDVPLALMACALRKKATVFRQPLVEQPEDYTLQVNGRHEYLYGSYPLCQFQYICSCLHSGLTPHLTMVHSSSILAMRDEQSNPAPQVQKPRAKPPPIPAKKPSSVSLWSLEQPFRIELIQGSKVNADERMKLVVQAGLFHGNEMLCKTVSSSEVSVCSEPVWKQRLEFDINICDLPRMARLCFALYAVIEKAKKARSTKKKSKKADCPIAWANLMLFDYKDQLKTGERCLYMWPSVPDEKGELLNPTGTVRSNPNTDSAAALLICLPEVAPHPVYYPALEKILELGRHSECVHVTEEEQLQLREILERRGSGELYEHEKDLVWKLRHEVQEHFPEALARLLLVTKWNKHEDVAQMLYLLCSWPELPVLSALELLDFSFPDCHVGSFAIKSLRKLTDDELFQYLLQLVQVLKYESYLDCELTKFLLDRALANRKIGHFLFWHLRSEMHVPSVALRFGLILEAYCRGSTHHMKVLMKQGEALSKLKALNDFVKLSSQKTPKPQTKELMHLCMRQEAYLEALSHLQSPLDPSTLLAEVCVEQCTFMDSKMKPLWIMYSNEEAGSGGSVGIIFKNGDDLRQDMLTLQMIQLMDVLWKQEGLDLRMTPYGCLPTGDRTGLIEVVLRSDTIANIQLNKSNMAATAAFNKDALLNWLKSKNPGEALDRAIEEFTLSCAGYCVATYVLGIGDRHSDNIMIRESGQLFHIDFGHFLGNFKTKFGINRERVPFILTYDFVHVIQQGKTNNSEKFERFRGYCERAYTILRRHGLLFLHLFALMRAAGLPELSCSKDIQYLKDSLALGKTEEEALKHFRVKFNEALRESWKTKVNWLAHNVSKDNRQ
PI3Kdelta, sequence (P27986 whole entry partner, the tested form may be a part, canonical isoform): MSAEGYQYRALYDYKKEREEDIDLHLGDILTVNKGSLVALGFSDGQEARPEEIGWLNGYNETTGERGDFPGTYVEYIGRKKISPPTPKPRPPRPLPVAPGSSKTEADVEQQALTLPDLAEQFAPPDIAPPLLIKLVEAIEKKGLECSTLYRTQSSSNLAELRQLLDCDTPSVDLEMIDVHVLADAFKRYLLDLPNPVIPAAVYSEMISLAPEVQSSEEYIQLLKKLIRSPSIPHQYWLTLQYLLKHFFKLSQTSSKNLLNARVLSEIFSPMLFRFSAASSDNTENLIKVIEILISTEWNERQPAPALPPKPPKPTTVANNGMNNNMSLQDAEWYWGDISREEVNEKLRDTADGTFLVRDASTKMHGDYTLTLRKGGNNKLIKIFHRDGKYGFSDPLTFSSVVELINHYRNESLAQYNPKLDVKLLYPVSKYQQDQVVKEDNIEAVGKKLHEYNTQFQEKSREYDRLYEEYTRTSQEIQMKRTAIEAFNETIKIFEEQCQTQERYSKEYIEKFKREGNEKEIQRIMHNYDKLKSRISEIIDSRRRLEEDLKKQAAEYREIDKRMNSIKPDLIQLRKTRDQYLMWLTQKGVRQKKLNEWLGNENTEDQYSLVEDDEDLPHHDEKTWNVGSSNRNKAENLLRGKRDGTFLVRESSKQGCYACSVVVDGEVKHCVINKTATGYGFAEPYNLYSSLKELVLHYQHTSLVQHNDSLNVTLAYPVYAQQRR
PI3Kalpha, sequence (P42336 whole entry, the tested form may be a part, canonical isoform): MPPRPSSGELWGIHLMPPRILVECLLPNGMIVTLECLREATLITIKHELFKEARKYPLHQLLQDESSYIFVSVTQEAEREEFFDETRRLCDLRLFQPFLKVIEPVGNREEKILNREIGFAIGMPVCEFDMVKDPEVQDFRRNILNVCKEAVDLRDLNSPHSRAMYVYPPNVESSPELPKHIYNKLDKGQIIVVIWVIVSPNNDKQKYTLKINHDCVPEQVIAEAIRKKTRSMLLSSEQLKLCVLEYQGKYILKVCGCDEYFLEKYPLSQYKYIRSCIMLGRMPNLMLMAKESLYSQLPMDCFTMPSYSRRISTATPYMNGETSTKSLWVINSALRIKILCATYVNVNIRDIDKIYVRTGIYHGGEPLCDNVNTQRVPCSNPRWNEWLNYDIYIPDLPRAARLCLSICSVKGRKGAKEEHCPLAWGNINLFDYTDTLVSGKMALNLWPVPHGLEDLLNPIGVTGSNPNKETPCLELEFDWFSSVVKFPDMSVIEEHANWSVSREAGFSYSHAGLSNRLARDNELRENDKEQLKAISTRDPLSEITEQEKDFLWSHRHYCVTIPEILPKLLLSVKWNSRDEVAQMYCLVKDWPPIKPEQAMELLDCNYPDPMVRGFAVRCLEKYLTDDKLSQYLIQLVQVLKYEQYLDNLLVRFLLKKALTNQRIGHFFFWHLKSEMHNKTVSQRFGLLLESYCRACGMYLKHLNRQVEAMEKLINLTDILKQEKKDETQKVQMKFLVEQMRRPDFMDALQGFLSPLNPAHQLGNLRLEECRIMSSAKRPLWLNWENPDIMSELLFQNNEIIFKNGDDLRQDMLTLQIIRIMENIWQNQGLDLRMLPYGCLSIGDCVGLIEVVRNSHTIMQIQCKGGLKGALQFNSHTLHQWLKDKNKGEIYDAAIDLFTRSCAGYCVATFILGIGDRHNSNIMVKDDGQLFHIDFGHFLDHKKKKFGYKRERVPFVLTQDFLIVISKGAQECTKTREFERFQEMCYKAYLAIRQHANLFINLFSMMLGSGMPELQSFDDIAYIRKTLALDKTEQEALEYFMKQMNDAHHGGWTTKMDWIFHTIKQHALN
PI3Kalpha, sequence (P27986 whole entry partner, the tested form may be a part, canonical isoform): as the sequence (P27986 whole entry partner, the tested form may be a part, canonical isoform) above

For orientation: IC50 means the concentration that gives 50% inhibition. A high value points to weaker potency in that assay. In turn, `CC(C)C[C@@H]1CN(c2nc(-c3cnn(C)c3)ncc2C#N)CCN1C(=O)C1CC1` [Compound 5-6, 4-[(3R)-4-(cyclopropylcarbonyl)-3-(2-methylpropyl)piperazin-1-yl]-2-(1-methyl-1H-pyrazol-4-yl)pyrimidine-5-carbonitrile] gave an IC50 at PI3Kdelta of 190 nM. The “Selectivity versus PI3Kalpha” value at PI3Kalpha is over 10.

Regarding `Cn1cc(-c2ncc(C#N)c(N3CC4C[C@H]3CN4c3cccc(C(C)(C)O)c3)n2)cn1` (stereo in doubt) [Compound 1-5, 4-{(1S,4R)-5-[3-(1-hydroxy-1-methylethyl)phenyl]-2,5-diazabicyclo[2.2.1]hept-2-yl}-2-(1-methyl-1H-pyrazol-4-yl)pyrimidine-5-carbonitrile], the half-maximal inhibitory concentration (IC50) against PI3Kdelta was 220 nM. Further, on PI3Kalpha, the “Selectivity versus PI3Kalpha” value was over 10.

On to `C[C@@H]1C[C@H]1C(=O)N1CCN(c2nc(-c3cnn(C)c3)ncc2C#N)C[C@H]1C` [Compound 4-8, 4-[(3R)-3-methyl-4-{[(1R,2R)-2-methylcyclopropyl]carbonyl}piperazin-1-yl]-2-(1-methyl-1H-pyrazol-4-yl)pyrimidine-5-carbonitrile], for which half-maximal inhibition against PI3Kdelta (IC50) was put at 32 nM. On PI3Kalpha, the “Selectivity versus PI3Kalpha” value is given as over 10.

`C[C@@H]1CN(c2nc(-c3cnn(C)c3)nc(N3CC(C(F)(F)F)C3)c2C#N)CCN1C(=O)C1CC1` [Compound 6-23, 4-[(3R)-4-(cyclopropylcarbonyl)-3-methylpiperazin-1-yl]-2-(1-methyl-1H-pyrazol-4-yl)-6-[3-(trifluoromethyl)azetidin-1-yl]pyrimidine-5-carbonitrile] came in with an IC50 against PI3Kdelta of 83 nM. Besides, the “Selectivity versus PI3Kalpha” value at PI3Kalpha is over 10.

`Cn1cc(-c2ncc(C#N)c(N3CC4C[C@H]3CN4c3cccc(OCCF)c3)n2)cn1` (stereo in doubt) [Compound 1-8, 4-{(1S,4R)-5-[3-(2-fluoroethoxy)phenyl]-2,5-diazabicyclo[2.2.1]hept-2-yl}-2-(1-methyl-1H-pyrazol-4-yl)pyrimidine-5-carbonitrile] returned an IC50 on PI3Kdelta of 79 nM. For the same compound, the “Selectivity versus PI3Kalpha” value on PI3Kalpha was over 10.

For `C[C@@H]1CN(c2nc(-c3cnn(C)c3)ncc2C#N)CCN1c1cccc(C#N)c1` [Compound 4-12, 4-[(3R)-4-(3-cyanophenyl)-3-methylpiperazin-1-yl]-2-(1-methyl-1H-pyrazol-4-yl)pyrimidine-5-carbonitrile], half-maximal inhibition against PI3Kdelta (IC50) was put at 86 nM. Also, the “Selectivity versus PI3Kalpha” value on PI3Kalpha was over 10.

Compound `N#Cc1cnc(-c2cnc3[nH]ccc3c2)nc1N1C[C@@H]2CC1CN2c1cccc(F)c1` (stereo in doubt) [Compound 1-18, 4-[(1R,4S)-5-(3-fluorophenyl)-2,5-diazabicyclo[2.2.1]hept-2-yl]-2-(1H-pyrrolo[2,3-b]pyridin-5-yl)pyrimidine-5-carbonitrile] registered an IC50 at PI3Kdelta of 920 nM. In addition, on PI3Kalpha, the “Selectivity versus PI3Kalpha” value was 8.

In turn, `Cn1cc(-c2ncc(C#N)c(N3CC4C[C@H]3CN4C(=O)C3CC3)n2)cn1` (stereo in doubt) [Compound 2-1, 4-[(1S,4R)-5-(cyclopropylcarbonyl)-2,5-diazabicyclo[2.2.1]hept-2-yl]-2-(1-methyl-1H-pyrazol-4-yl)pyrimidine-5-carbonitrile] yielded an IC50 at PI3Kdelta of 160 nM. Besides, on PI3Kalpha, the “Selectivity versus PI3Kalpha” value was over 10.

`C[C@@H]1CN(c2nc(-c3cnn(C)c3)nc(Nc3ccccc3)c2C#N)CCN1C(=O)C1CC1` [Compound 6-8, 4-[(3R)-4-(cyclopropylcarbonyl)-3-methylpiperazin-1-yl]-2-(1-methyl-1H-pyrazol-4-yl)-6-(phenylamino)pyrimidine-5-carbonitrile] registered an IC50 against PI3Kdelta of 19 nM. Besides, at PI3Kalpha, the “Selectivity versus PI3Kalpha” value was over 10.

`Cn1cc(-c2ncc(C#N)c(N3CC4C[C@H]3CN4C(=O)c3cccs3)n2)cn1` (stereo in doubt) [Compound 2-10, 2-(1-methyl-1H-pyrazol-4-yl)-4-[(1S,4R)-5-(thiophen-2-ylcarbonyl)-2,5-diazabicyclo[2.2.1]hept-2-yl]pyrimidine-5-carbonitrile] showed an IC50 at PI3Kdelta of 500 nM. Besides, the “Selectivity versus PI3Kalpha” value on PI3Kalpha is over 10.

Take `Cn1cc(-c2ncc(C#N)c(N3CC4C[C@H]3CN4c3cccc(C#N)c3)n2)cn1` (stereo in doubt) [Compound 1-1, 4-[(1S,4R)-5-(3-cyanophenyl)-2,5-diazabicyclo[2.2.1]hept-2-yl]-2-(1-methyl-1H-pyrazol-4-yl)pyrimidine-5-carbonitrile]: the IC50 on PI3Kdelta was found to be 69 nM. Besides, the “Selectivity versus PI3Kalpha” value at PI3Kalpha is over 10.

`N#Cc1cnc(-c2ccnc3[nH]ccc23)nc1N1C[C@@H]2CC1CN2c1cccc(F)c1` (stereo in doubt) [Compound 1-17, 4-[(1R,4S)-5-(3-fluorophenyl)-2,5-diazabicyclo[2.2.1]hept-2-yl]-2-(1H-pyrrolo[2,3-b]pyridin-4-yl)pyrimidine-5-carbonitrile] came in with a 50% inhibitory concentration (IC50) at PI3Kdelta of 56 nM. Moreover, the “Selectivity versus PI3Kalpha” value on PI3Kalpha is recorded as over 10.

As for `C[C@@H]1CN(c2nc(-c3cnn(C)c3)nc(NCCC(F)(F)F)c2C#N)CCN1C(=O)C1CC1` [Compound 6-19, 4-[(3R)-4-(cyclopropylcarbonyl)-3-methylpiperazin-1-yl]-2-(1-methyl-1H-pyrazol-4-yl)-6-[(3,3,3-trifluoropropyl)amino]pyrimidine-5-carbonitrile], the concentration for half-maximal inhibition (IC50) against PI3Kdelta was 9.4 nM. Moreover, on PI3Kalpha, the “Selectivity versus PI3Kalpha” value is listed as over 10.

As for `C[C@@H]1CN(c2nc(-c3cnn(C)c3)ncc2C#N)CCN1C(=O)C1(C)CC1` [Compound 4-4, 4-{(3R)-3-methyl-4-[(1-methylcyclopropyl)carbonyl]piperazin-1-yl}-2-(1-methyl-1H-pyrazol-4-yl)pyrimidine-5-carbonitrile], the midpoint of inhibition against PI3Kdelta, the IC50, lay at 1100 nM. Also, the “Selectivity versus PI3Kalpha” value at PI3Kalpha is over 10.

At PI3Kdelta, `CC(C)c1cnc(-c2cnc(N3CCN(C(=O)C4CC4)[C@H](C)C3)nc2-c2cnn(C)c2)o1` [Compound 5-5, 2-[(3R)-4-(cyclopropylcarbonyl)-3-methylpiperazin-1-yl]-5-[5-(1-methylethyl)-1,3-oxazol-2-yl]-4-(1-methyl-1H-pyrazol-4-yl)pyrimidine] came in with an IC50 of 410 nM. Further, the “Selectivity versus PI3Kalpha” value on PI3Kalpha is given as over 10.

`CNC(=O)c1cccc(N2C[C@@H]3CC2CN3c2nc(-c3cnn(C)c3)ncc2C#N)c1` (stereo in doubt) [Compound 1-13, 3-{(1R,4S)-5-[5-cyano-2-(1-methyl-1H-pyrazol-4-yl)pyrimidin-4-yl]-2,5-diazabicyclo[2.2.1]hept-2-yl}-N-methylbenzamide] gave an IC50 on PI3Kdelta of 97 nM. Further, the “Selectivity versus PI3Kalpha” value on PI3Kalpha was over 10.

Turning to `Cn1cc(-c2ncc(C#N)c(N3CC4C[C@H]3CN4c3cccc(C4CC4)c3)n2)cn1` (stereo in doubt) [Compound 1-11, 4-[(1S,4R)-5-(3-cyclopropylphenyl)-2,5-diazabicyclo[2.2.1]hept-2-yl]-2-(1-methyl-1H-pyrazol-4-yl)pyrimidine-5-carbonitrile], the IC50 on PI3Kdelta was 130 nM. Also, on PI3Kalpha, the “Selectivity versus PI3Kalpha” value is over 10.

The compound `CCCc1nc(N2CCN(C(=O)C3CC3)[C@H](C)C2)nc(-c2cnn(C)c2)c1C#N` [Compound 6-25, 2-[(3R)-4-(cyclopropylcarbonyl)-3-methylpiperazin-1-yl]-4-(1-methyl-1H-pyrazol-4-yl)-6-propylpyrimidine-5-carbonitrile] returned an IC50 against PI3Kdelta of 10 nM. Also, the “Selectivity versus PI3Kalpha” value at PI3Kalpha is on record as over 10.

Consider `Cn1cc(-c2ncc(C#N)c(N3CC4C[C@H]3CN4CCCF)n2)cn1` (stereo in doubt) [Compound 2-16, 4-[(1S,4R)-5-(3-fluoropropyl)-2,5-diazabicyclo[2.2.1]hept-2-yl]-2-(1-methyl-1H-pyrazol-4-yl)pyrimidine-5-carbonitrile], for which, on PI3Kdelta, the IC50 was determined as 970 nM. In addition, at PI3Kalpha, the “Selectivity versus PI3Kalpha” value is on record as over 10.

On to `C[C@@H]1CN(c2ncc(C(F)F)c(-c3cnn(C)c3)n2)CCN1C(=O)C1CC1` [Compound 5-11, 2-[(3R)-4-(cyclopropylcarbonyl)-3-methylpiperazin-1-yl]-5-(difluoromethyl)-4-(1-methyl-1H-pyrazol-4-yl)pyrimidine], for which the IC50 on PI3Kdelta stood at 370 nM. Moreover, the “Selectivity versus PI3Kalpha” value at PI3Kalpha was over 10.

On PI3Kdelta, `CCC(=O)N1CCN(c2nc(-c3cnn(C)c3)ncc2C#N)C[C@H]1C` [Compound 4-2, 4-[(3R)-3-methyl-4-propanoylpiperazin-1-yl]-2-(1-methyl-1H-pyrazol-4-yl)pyrimidine-5-carbonitrile] displayed a concentration for half-maximal inhibition (IC50) of 260 nM. At PI3Kalpha, the “Selectivity versus PI3Kalpha” value is listed as over 10.

Compound `CC(C)S(=O)(=O)N1C[C@@H]2CC1CN2c1nc(-c2cnn(C)c2)ncc1C#N` (stereo in doubt) [Compound 2-13, 4-{(1S,4R)-5-[(1-methylethyl)sulfonyl]-2,5-diazabicyclo[2.2.1]hept-2-yl}-2-(1-methyl-1H-pyrazol-4-yl)pyrimidine-5-carbonitrile] showed an IC50 against PI3Kdelta of 470 nM. For the same compound, the “Selectivity versus PI3Kalpha” value on PI3Kalpha was over 10.

At PI3Kdelta, `C[C@@H]1CN(c2nc(C#N)cc(-c3cnn(C)c3)n2)CCN1C(=O)C1CC1` [Compound 5-2, 2-[(3R)-4-(cyclopropylcarbonyl)-3-methylpiperazin-1-yl]-6-(1-methyl-1H-pyrazol-4-yl)pyrimidine-4-carbonitrile] had an IC50 of 240 nM. In addition, the “Selectivity versus PI3Kalpha” value on PI3Kalpha is reported as over 10.

`Cn1cc(-c2ncc(C#N)c(N3CC4C[C@H]3CN4S(=O)(=O)C3CCCC3)n2)cn1` (stereo in doubt) [Compound 2-15, 4-[(1S,4R)-5-(cyclopentylsulfonyl)-2,5-diazabicyclo[2.2.1]hept-2-yl]-2-(1-methyl-1H-pyrazol-4-yl)pyrimidine-5-carbonitrile] displayed an IC50 against PI3Kdelta of 650 nM. Besides, the “Selectivity versus PI3Kalpha” value at PI3Kalpha was over 10.
